Patent US20220362282A1, “COMPOSITIONS AND METHODS FOR TREATING EYE DISEASES” (ADS THERAPEUTICS LLC, priority 2019, published 2022)

How the values were obtained:
[1] = system: Patients with Primary or Recurrent Pterygium; assay: Phase 2a clinical trial in pterygium patients: Pterygium Symptom and Life Quality (PSLQ) questionnaire scores; assay type: in vivo, human
Text: 2-HP-β-CD Formulation I was used as vehicle.
A trend of effects also remained after the stop of treatment at weeks 8, 16, and 24. The other questions didn't generate statistically significant effects.
These ocular symptoms are often observed in MGD patients. Scores of these symptoms were graded by patients as part of PSLQ questionnaires.

pterygium patients = assay: Safety (adverse events) of 10% HP-β-CD vehicle in the Phase 2 pterygium clinical trial; conditions: 10% as vehicle in the Phase 2 pterygium clinical trial
Protocol: The data was derived from the stage 2 of the Phase 2 clinical trial in pterygium patients who were topically administered 10% HP-β-CD as the vehicle of the testing article. The patients were treated for 4 weeks with three-time a day dosing and then followed up for another 20 weeks after the stop of treatment. The safety evaluation included the 20 weeks of non-treatment period.
All safety analyses were conducted on the safety population. MedDRA nomenclature was used to code adverse events. The number and percent of patients reporting adverse events were tabulated based on preferred terms and/or system organ class. Summary tables were generated for all adverse events regardless of causality as well as for treatment-related adverse events.

[2] = Screening of CDs and CD derivatives for ability to dissolve cholesterol in water (HPLC); assay type: physicochemical; conditions: for Concentrations of Cholesterol in CDs Solution: 5 days shaking at ambient; for Ability to dissolve cholesterol in water: CD 1, 10, 20% (w/v)
Protocol: Purpose: To determine the level of cholesterol that can be dissolved in water when 10 different CDs and their derivatives were added at three concentrations.
All CD solutions were prepared with starting 20% (w/v) solutions by accurately adding about 800 mg CDs in 4 milliliter water, 1% and 10% were diluted from this 20% solution to 2 mL for each sample preparation experiment.
Cholesterol was added accurately to all CD water solutions at about 40 mg/mL or about 80 mg per 2 mL. This amount of cholesterol was enough to fully saturate the CD solutions with white settlements or floating or both. All samples were conditioned at ambient by shaking using a rotator for 5 days.
After the equilibration with shaking for 5 days at ambient, the clear or semi-clear portion was filtered with 0.2 μm filter. 50 μL of the filtered solution was diluted with 450 μL methanol (10 X) for HPLC analysis. NOVAPAK phenyl column (7.6 cm by 3.9 mm I.D.) was used with a mobile phase of acetonitrile: water (70:30) at a flow rate of 0.5 ml/min and detection at UV at 210 nm.

[3] = cited from earlier work; for Ability to form soluble complex with cholesterol in aqueous solution: 37° C., CDs 1.0 × 10^−2 M; for Increase in Absorbance (600 nm) Due to Cholesterol Dissolved by CDs: Aqueous solution at 37° C., concentration of CDs 1.0 × 10^−2 M
[4] = Baseline, Modified Intent-to-Treat Population, N = 23
[5] = Week 2, 10% (w/w) TID for 4 weeks, N = 23
[6] = Week 4, 10% (w/w) TID for 4 weeks, N = 23
[7] = Week 8 (after treatment period), N = 23
[8] = Week 16 (after treatment period), N = 23
[9] = Week 24 (after treatment period), N = 23

For “2-Hydroxypropyl-beta-cyclodextrin [2-HP-β-CD]”, the “PSLQ scores compared to the baseline” value ([1]; 2-HP-β-CD-treated group, N = 23) was “significant improvements”, the “Magnitude of reduction in PSLQ ocular symptom score, dry eye vs no dry eye patients” value ([1]; 10%, pterygium patients with vs without dry eye condition) was “statistically significant bigger” and the “PSLQ Average Ocular Symptom Score, Mean (SD)” value [1, 4] was 0.88 (0.81). The “PSLQ Average Quality of Life Impact Score, Mean (SD)” value [1, 4] was 0.57 (0.92), the “PSLQ Average Vision-Related Functioning Score, Mean” value [1, 4] was 0.57 and the “PSLQ Overall Average Score, Mean (SD)” value [1, 4] was 0.70 (0.66). For the same compound, the “PSLQ Average Ocular Symptom Score, Change from Baseline, Mean (SD)” value [1, 5] was −0.36 (0.69), the “PSLQ Average Quality of Life Impact Score, Change from Baseline, Mean (SD)” value [1, 5] was −0.19 (0.39) and the “PSLQ Average Vision-Related Functioning Score, Change from Baseline, Mean” value [1, 5] was −0.27. For the same compound, the “PSLQ Overall Average Score, Change from Baseline, Mean (SD)” value (“PSLQ Overall Average Score, Change … (SD)” for short) [1, 5] was −0.28 (0.45), the “PSLQ Average Ocular Symptom Score, Change from Baseline, Mean (SD)” value [1, 6] was −0.46 (0.71) and the “PSLQ Average Quality of Life Impact Score, Change from Baseline, Mean (SD)” value [1, 6] was −0.19 (0.50). The “PSLQ Average Vision-Related Functioning Score, Change from Baseline, Mean” value [1, 6] was −0.48, the “PSLQ Overall Average Score, Change … (SD)” value [1, 6] was −0.35 (0.51) and the “PSLQ Average Ocular Symptom Score, Change from Baseline, Mean (SD)” value [1, 7] was −0.39 (0.84). For the same compound, the “PSLQ Average Quality of Life Impact Score, Change from Baseline, Mean (SD)” value [1, 7] was −0.17 (0.52), the “PSLQ Average Vision-Related Functioning Score, Change from Baseline, Mean” value [1, 7] was −0.43 and the “PSLQ Overall Average Score, Change … (SD)” value [1, 7] was −0.30 (0.55). The “PSLQ Average Ocular Symptom Score, Change from Baseline, Mean (SD)” value [1, 8] was −0.29 (0.79), the “PSLQ Average Quality of Life Impact Score, Change from Baseline, Mean (SD)” value [1, 8] was −0.13 (0.68) and the “PSLQ Average Vision-Related Functioning Score, Change from Baseline, Mean” value [1, 8] was −0.23. For the same compound, the “PSLQ Overall Average Score, Change … (SD)” value [1, 8] was −0.20 (0.64), the “PSLQ Average Ocular Symptom Score, Change from Baseline, Mean (SD)” value [1, 9] was −0.33 (0.90) and the “PSLQ Average Quality of Life Impact Score, Change from Baseline, Mean (SD)” value [1, 9] was −0.15 (0.59). The “PSLQ Average Vision-Related Functioning Score, Change from Baseline, Mean” value [1, 9] was −0.11, the “PSLQ Overall Average Score, Change … (SD)” value [1, 9] was −0.22 (0.73) and the “Safety profile” value (pterygium patients) was “excellent safety profile”. The “Concentrations of Cholesterol in CDs Solution” value (“Concentrations of Cholesterol” below) ([2]; CD 1% (w/v) in water) was 10 µg/mL, the “Ability to dissolve cholesterol in water” value [2] was “substantial ability” and the “Concentrations of Cholesterol” value ([2]; CD 10% (w/v) in water) was 820 µg/mL. The “Concentrations of Cholesterol” value ([2]; CD 20% (w/v) in water) was 2980 µg/mL, the “Ability to form soluble complex with cholesterol in aqueous solution” value (shortened to “Ability to form soluble complex”) [3] was “only a weak ability” and the “Increase in Absorbance (600 nm) Due to Cholesterol Dissolved by CDs” value (shortened to “Increase in Absorbance (600 nm) Due”) [3] was 0.01.
With “2-hydroxypropyl-alpha-cyclodextrin [HP-ACD, reference compound]” the “Ability to dissolve cholesterol in water” value [2] was “no detectable cholesterol dissolving activity”.
In the case of “2-hydroxypropyl-gamma-cyclodextrin [HP-GCD, reference compound]”, the “Ability to dissolve cholesterol in water” value [2] is reported as “extremely low levels”, the “Concentrations of Cholesterol” value ([2]; CD 10% (w/v) in water) is reported as 3 µg/mL and the “Concentrations of Cholesterol” value ([2]; CD 20% (w/v) in water) is reported as 11 µg/mL.
With `OC[C@H]1O[C@H](O[C@H]2[C@H](O)[C@@H](O)[C@@H](OC[C@H]3O[C@@H]4O[C@H]5[C@H](O)[C@@H](O)[C@@H](O[C@H]6[C@H](O)[C@@H](O)[C@@H](O[C@H]7[C@H](O)[C@@H](O)[C@@H](O[C@H]8[C@H](O)[C@@H](O)[C@@H](O[C@H]9[C@H](O)[C@@H](O)[C@@H](O[C@H]%10[C@H](O)[C@@H](O)[C@@H](O[C@H]3[C@H](O)[C@H]4O)O[C@@H]%10CO)O[C@@H]9CO)O[C@@H]8CO)O[C@@H]7CO)O[C@@H]6CO)O[C@@H]5CO)O[C@@H]2CO)[C@H](O)[C@@H](O)[C@@H]1O` [6-AM-BCD, 6-O-alpha-maltosyl-beta-cyclodextrin, reference compound] the “Concentrations of Cholesterol” value ([2]; CD 1% (w/v) in water) was 30 µg/mL, the “Ability to dissolve cholesterol in water” value [2] was “about half lower” and the “Concentrations of Cholesterol” value ([2]; CD 10% (w/v) in water) was 2570 µg/mL. For the same compound, the “Concentrations of Cholesterol” value ([2]; CD 20% (w/v) in water) was 3380 µg/mL.
In the case of `OC[C@H]1O[C@@H]2O[C@H]3[C@H](O)[C@@H](O)[C@@H](O[C@H]4[C@H](O)[C@@H](O)[C@@H](O[C@H]5[C@H](O)[C@@H](O)[C@@H](O[C@H]6[C@H](O)[C@@H](O)[C@@H](O[C@H]7[C@H](O)[C@@H](O)[C@@H](O[C@H]1[C@H](O)[C@H]2O)O[C@@H]7CO)O[C@@H]6CO)O[C@@H]5CO)O[C@@H]4CO)O[C@@H]3CO` [ACD, alpha-cyclodextrin], the “Ability to form soluble complex” value [3] is given as “do not form soluble complexes” and the “Increase in Absorbance (600 nm) Due” value [3] is given as 0.
For `OC[C@H]1O[C@@H]2O[C@H]3[C@H](O)[C@@H](O)[C@@H](O[C@H]4[C@H](O)[C@@H](O)[C@@H](O[C@H]5[C@H](O)[C@@H](O)[C@@H](O[C@H]6[C@H](O)[C@@H](O)[C@@H](O[C@H]7[C@H](O)[C@@H](O)[C@@H](O[C@H]8[C@H](O)[C@@H](O)[C@@H](O[C@H]1[C@H](O)[C@H]2O)O[C@@H]8CO)O[C@@H]7CO)O[C@@H]6CO)O[C@@H]5CO)O[C@@H]4CO)O[C@@H]3CO` [BCD, beta-cyclodextrin], the “Ability to form soluble complex” value [3] is listed as “do not form soluble complexes”.
In the case of `COC[C@H]1O[C@@H]2O[C@H]3[C@H](O)[C@@H](OC)[C@@H](O[C@H]4[C@H](O)[C@@H](OC)[C@@H](O[C@H]5[C@H](O)[C@@H](OC)[C@@H](O[C@H]6[C@H](O)[C@@H](OC)[C@@H](O[C@H]7[C@H](O)[C@@H](OC)[C@@H](O[C@H]8[C@H](O)[C@@H](OC)[C@@H](O[C@H]1[C@H](O)[C@H]2OC)O[C@@H]8COC)O[C@@H]7COC)O[C@@H]6COC)O[C@@H]5COC)O[C@@H]4COC)O[C@@H]3COC` [DM-BCD, heptakis (2,6-di-O-methyl)-beta-cyclodextrin], the “Concentrations of Cholesterol” value ([2]; CD 1% (w/v) in water) is reported as 190 µg/mL, the “Ability to dissolve cholesterol in water” value [2] is reported as “the best” and the “Concentrations of Cholesterol” value ([2]; CD 10% (w/v) in water) is reported as 5130 µg/mL. The “Concentrations of Cholesterol” value ([2]; CD 20% (w/v) in water) was 10430 µg/mL, the “Ability to form soluble complex” value [3] was “strong ability” and the “Increase in Absorbance (600 nm) Due” value [3] was 0.336.
For `OC[C@H]1O[C@@H]2O[C@H]3[C@H](O)[C@@H](O)[C@@H](O[C@H]4[C@H](O)[C@@H](O)[C@@H](O[C@H]5[C@H](O)[C@@H](O)[C@@H](O[C@H]6[C@H](O)[C@@H](O)[C@@H](O[C@H]7[C@H](O)[C@@H](O)[C@@H](O[C@H]8[C@H](O)[C@@H](O)[C@@H](O[C@H]9[C@H](O)[C@@H](O)[C@@H](O[C@H]1[C@H](O)[C@H]2O)O[C@@H]9CO)O[C@@H]8CO)O[C@@H]7CO)O[C@@H]6CO)O[C@@H]5CO)O[C@@H]4CO)O[C@@H]3CO` [GCD, gamma-cyclodextrin], the “Ability to form soluble complex” value [3] is given as “do not form soluble complexes” and the “Increase in Absorbance (600 nm) Due” value [3] is given as 0.
With `COC(=O)c1ccc2c(c1)NC(=O)/C2=C(\Nc1ccc(N(C)C(=O)CN2CCN(C)CC2)cc1)c1ccccc1` [Nintedanib, reference compound] the “PSLQ ocular symptom score, Nintedanib 0.2% vs Vehicle” value ([1]; pterygium patients with dry eye condition) was “no statistically significant differences”.
With random methyl-beta-cyclodextrin [M-BCD] the “Concentrations of Cholesterol” value ([2]; CD 1% (w/v) in water) was 150 µg/mL, the “Ability to dissolve cholesterol in water” value [2] was “the best” and the “Concentrations of Cholesterol” value ([2]; CD 10% (w/v) in water) was 6030 µg/mL. For the same compound, the “Concentrations of Cholesterol” value ([2]; CD 20% (w/v) in water) was 14200 µg/mL.
In the case of “sulfobutylated beta-cyclodextrin [SBE-BCD]”, the “Concentrations of Cholesterol” value ([2]; CD 1% (w/v) in water) is reported as 2 µg/mL, the “Concentrations of Cholesterol” value ([2]; CD 10% (w/v) in water) is reported as 30 µg/mL and the “Concentrations of Cholesterol” value ([2]; CD 20% (w/v) in water) is reported as 150 µg/mL.
